# Reference: US20120171123A1, “USES AND COMPOSITIONS FOR TREATMENT OF RHEUMATOID ARTHRITIS” (priority 2006, published 2012)
# Legend:
# [1] = system: MTX-naïve adult patients with active, early RA (<3 years); experiment: Study J: subject disposition and withdrawals; details: 2 years
# [2] = system: MTX-naïve adult patients with active, early RA (<3 years); experiment: Study J: radiographic progression (TSS, joint erosion, joint space narrowing); format: in vivo, human; design: key to mean change from baseline in TSS / Mean change in TSS / TSS after 2 years / change in TSS over 2 years / mean change in TSS from baseline / Mean ΔTSS at 1 year / Mean ΔTSS Yr 1-Yr 2: modified total Sharp score, 0-398 scale; details: for Annualized rate of radiographic progression (ΔTSS): all pts in treatment arm
# Description: The co-primary endpoints, comparing MTX alone with the combination at 1 year, were the ACR50 response (using non-responder imputation), and inhibition of radiographic progression, as measured by change in total Sharp score (TSS). In this study, the term “Major Clinical Response” (MCR) meant a continuous ACR70 response for 6 or more consecutive months.
# At 1 and 2 years, the American College of Rheumatology (ACR) responses (ACR20, ACR50, and ACR70), the Disease Activity Score 28 (DAS28), and the change (Δ) in Total Sharp Score (TSS) were determined for all patients. Results were analyzed for the intention-to-treat (ITT) population using imputation for missing data. Clinical remission was defined as DAS28<2.6. The mean ΔTSS values at 1 year and 2 years (N=791) were determined for patients in each ACR response category (ACR20/50/70) and for patients with DAS28<2.6
# Radiographic progression was measured by Total Sharp Score (TSS) at baseline, and 1 and 2 years in the intention to treat population (ITT) using imputation for missing data. In this analysis, patients were divided into 1 of 2 categories by disease duration at baseline: <6 months (Group 1) or 6 months to 3 years (Group 2). Mean changes in TSS were reported for both groups by each of the 3 treatment arms from baseline to Year 1 and from Year 1 to Year 2.
# Radiographic progression was assessed by mean change from baseline in Total Sharp Score (TSS) and stratified into those with (ΔTSS>0.5) and without (Δ≦TSS 0.5). Patients were categorized as either having radiographic progression at 1 year (ΔTSS>0.5) or not (Δ≦TSS 0.5). A logistic regression model was used to identify predictors of radiographic disease progression by testing several baseline characteristics, including age, disease duration, RF status, TJC, SJC, joint erosions, and CRP. For analyses of CRP, patients were categorized as normal (CRP≦0.8 mg/dL) or abnormal (CRP>0.8 mg/dL).
# Mean change from baseline in Total Sharp Score (TSS) was measured at 6 months, 1 year, and 2 years in the intention-to-treat (ITT) population using imputation for missing data. Patients were classified as having radiographic progression (mean change in TSS>0.5) or without radiographic progression (ΔTSS≦0.5). Patients with inadequate data were excluded from this analysis.
# Patients in the Ada+MTX and the MTX arms were classified according to level of clinical response (non-responder (<ACR20), ACR20, ACR50, or ACR70) and radiographic progression (Yes or No (ΔTSS≦0.5)). The ΔTSS was analyzed overall, and for ACR subgroups. This included determination of mean ΔTSS and probability plots.
# Study J was a 2-year, double-blind, active comparator-controlled, Phase III study. […] For each patient, radiographs of hands and feet were taken at baseline, 6 months, 1 year and 2 years and evaluated for joint erosions (JE) and joint space narrowing (JSN) by 2 blinded radiologists. Changes from baseline in the modified total Sharp score (TSS, 0-398) were calculated for patients in each treatment arm. Cumulative probability plots were generated by estimating the probability of exceeding a given change in TSS. For each treatment, we calculated the percentages of patients whose ΔTSS exceeded specified thresholds, and the probability of having a given ΔTSS (using cumulative probability plots). For each of 4 cumulative probability ranges, 0-10%, 10-50%, 50-90% and 90-100% (higher numbered ranges=greater ΔTSS), mean ΔTSS values were calculated. In previous reports, Study J radiographic analyses employed linear imputation. In the present analysis, only observed data were employed, with no imputation.
# [3] = Group 1, BL disease duration <6 mos (n=448)
# [4] = Group 2, BL disease duration 6 mos to 3 yrs (n=333)
# [5] = disease duration 6 months to 3 years
# [6] = disease duration 6 months-3 years (n=333)
structure (smiles),measurement,setting,value
"CN(Cc1cnc2nc(N)nc(N)c2n1)c1ccc(C(=O)N[C@@H](CCC(=O)O)C(=O)O)cc1 [mtx alone, methotrexate]","withdrawn, reason AE",[1],8%
same,"withdrawn, reason lack of efficacy",[1],18%
same,Annualized rate of radiographic progression (ΔTSS),[2]; 0-6 mos,7.0 Sharp Score Units per Year
same,Annualized rate of radiographic progression (ΔTSS),[2]; 1-2 yrs,4.7 Sharp Score Units per Year
same,patients with ΔTSS≦0.5 among those achieving DAS28 remission,[2]; 1 year,47%
same,Mean change in TSS,"[2]; 1 year, ACR20 responders",3.9
same,mean change in JE score,"[2]; 1 year, ACR20 responders",2.0
same,mean change in JSN,"[2]; 1 year, ACR20 responders",1.4
same,Mean change in TSS,"[2]; 1 year, ACR50 responders",3.2
same,mean change in JE score,"[2]; 1 year, ACR50 responders",2.2
same,mean change in JSN,"[2]; 1 year, ACR50 responders",1.0
same,Mean change in TSS,"[2]; 1 year, ACR70 responders",2.7
same,mean change in JE score,"[2]; 1 year, ACR70 responders",1.6
same,mean change in JSN,"[2]; 1 year, ACR70 responders",1.1
same,patients with no radiographic progression,"[2]; 1 year, abnormal baseline CRP normalized at 1 year",33%
same,patients with no radiographic progression,"[2]; 1 year, elevated CRP at both baseline and 1 year",31%
same,patients with no disease progression (ΔTSS≦0.5),"[2]; 1 year, patients with CRP and X-rays available",38%
same,Mean change in TSS,"[2]; 1 year, patients with DAS28<2.6",1.9
same,Mean change in TSS,"[2]; 1 year, patients with DAS28<2.6, listed as MTX alone",2.8
same,% of patients with >4 change TSS,[2]; 2 years,41.3%
same,% of patients with >10 change TSS,[2]; 2 years,23.3%
same,% of patients with >20 change TSS,[2]; 2 years,7%
same,patients with no radiographic progression (change in TSS ≦0.5),[2]; 2 years,34%
same,patients with ΔTSS≦0.5 among those achieving DAS28 remission,[2]; 2 years,47%
same,Mean change TSS in radiographic progressors (ΔTSS > 0.5),"[2]; 2 years, ACR20 responders",9.4
same,mean change in JE score,"[2]; 2 years, ACR20 responders",3.6
same,mean change in JSN,"[2]; 2 years, ACR20 responders",2.3
same,mean change in TSS from baseline,"[2]; 2 years, ACR20 responders",5.5
same,mean change in TSS from baseline,"[2]; 2 years, ACR20 responders, listed as MTX alone",5.8
same,Mean change TSS in radiographic progressors (ΔTSS > 0.5),"[2]; 2 years, ACR50 responders",8.5
same,mean change in JE score,"[2]; 2 years, ACR50 responders",3.0
same,mean change in JSN,"[2]; 2 years, ACR50 responders",1.8
same,mean change in TSS from baseline,"[2]; 2 years, ACR50 responders",4.9
same,Mean change TSS in radiographic progressors (ΔTSS > 0.5),"[2]; 2 years, ACR70 responders",7.5
same,mean change in JE score,"[2]; 2 years, ACR70 responders",2.6
same,mean change in JSN,"[2]; 2 years, ACR70 responders",1.4
same,mean change in TSS from baseline,"[2]; 2 years, ACR70 responders",4.1
same,Mean change in TSS,"[2]; 2 years, patients with DAS28<2.6",2.8
same,Mean change in TSS,"[2]; 2 years, patients with DAS28<2.6, listed as MTX alone",1.9
same,"Frequency of radiographic progression (ΔTSS > 0.5), % of patients","[2]; 2 years, ACR20 responders, observed data",62%
same,"Frequency of radiographic progression (ΔTSS > 0.5), % of patients","[2]; 2 years, ACR50 responders, observed data",60%
same,"Frequency of radiographic progression (ΔTSS > 0.5), % of patients","[2]; 2 years, ACR70 responders, observed data",57%
same,Mean change TSS in radiographic progressors (ΔTSS > 0.5),"[2]; 2 years, Non-responder (<ACR20)",15.5
same,"Frequency of radiographic progression (ΔTSS > 0.5), % of patients","[2]; 2 years, Non-responder (<ACR20), observed data",75%
same,Mean change in TSS,"[2]; 2 years, all points (0-100), observed data",6.4
same,Mean change in TSS,"[2]; 2 years, cumulative probability range 0-10",−3.9
same,Mean change in TSS,"[2]; 2 years, cumulative probability range 10-50",0.5
same,Mean change in TSS,"[2]; 2 years, cumulative probability range 50-90",7.6
same,Mean change in TSS,"[2]; 2 years, cumulative probability range 90-100",31.4
same,% of patients with >4 change TSS,[2]; 6 months,0%
same,% of patients with >10 change TSS,[2]; 6 months,1.7%
same,% of patients with >20 change TSS,[2]; 6 months,2.3%
same,patients with no radiographic progression,[2]; 6 months,51%
same,Mean change TSS in radiographic progressors (ΔTSS > 0.5),"[2]; 6 months, ACR20 responders",4.8
same,"Frequency of radiographic progression (ΔTSS > 0.5), % of patients","[2]; 6 months, ACR20 responders, observed data",55%
same,Mean change TSS in radiographic progressors (ΔTSS > 0.5),"[2]; 6 months, ACR50 responders",3.8
same,"Frequency of radiographic progression (ΔTSS > 0.5), % of patients","[2]; 6 months, ACR50 responders, observed data",51%
same,Mean change TSS in radiographic progressors (ΔTSS > 0.5),"[2]; 6 months, ACR70 responders",3.4
same,"Frequency of radiographic progression (ΔTSS > 0.5), % of patients","[2]; 6 months, ACR70 responders, observed data",49%
same,Mean change TSS in radiographic progressors (ΔTSS > 0.5),"[2]; 6 months, Non-responder (<ACR20)",10.8
same,"Frequency of radiographic progression (ΔTSS > 0.5), % of patients","[2]; 6 months, Non-responder (<ACR20), observed data",59%
same,Mean change in TSS,"[2]; 6 months, all points (0-100), observed data",3.4
same,Mean change in TSS,"[2]; 6 months, cumulative probability range 0-10",−2.0
same,Mean change in TSS,"[2]; 6 months, cumulative probability range 10-50",0.2
same,Mean change in TSS,"[2]; 6 months, cumulative probability range 50-90",4.4
same,Mean change in TSS,"[2]; 6 months, cumulative probability range 90-100",16.5
same,Annualized rate of radiographic progression (ΔTSS),[2]; 6 mos-1 yr,4.4 Sharp Score Units per Year
same,Mean change in TSS,"[2]; 26 weeks, observed data",3.4
same,Mean change in TSS,"[2]; 52 weeks, observed data",5.2
same,Mean change in TSS,"[2]; 104 weeks, observed data",6.4
same,Patients with No Radiographic Progression at 1 Year,[2]; CRP (BL and Year 1) Abnormal to Normal,33%
same,Patients with No Radiographic Progression at 1 Year,[2]; CRP (BL and Year 1) Always Normal,86%
same,Patients with No Radiographic Progression at 1 Year,[2]; CRP (BL and Year 1) Never Normal,31%
same,Mean ΔTSS Yr 1-Yr 2,[2]; [3],5.8
same,Mean ΔTSS at 1 year,[2]; [3],7.4
same,Mean ΔTSS Yr 1-Yr 2,[2]; [4],3.4
same,Mean ΔTSS at 1 year,[2]; [4],3.8
same,"No Progression at Month 6, %",[2]; Study J,51%
same,"No Progression at Month 6, patients/total",[2]; Study J,129/252
same,"No Progression at Month 6 and Year 2, %",[2]; Study J,61%
same,"No Progression at Month 6 and Year 2, patients/Month-6 non-progressors",[2]; Study J,79/129
same,"Yr-2 Non-P, %",[2]; among Mo-6 Non-Progressors,61%
same,"Yr-2 Non-P, number of patients",[2]; among Mo-6 Non-Progressors,79
same,"Yr-2 Prog, %",[2]; among Mo-6 Non-Progressors,39%
same,"Yr-2 Prog, number of patients",[2]; among Mo-6 Non-Progressors,50
same,"Yr-2 Non-P, %",[2]; among Mo-6 Progressors,6%
same,"Yr-2 Non-P, number of patients",[2]; among Mo-6 Progressors,7
same,"Yr-2 Prog, %",[2]; among Mo-6 Progressors,94%
same,"Yr-2 Prog, number of patients",[2]; among Mo-6 Progressors,116
same,TSS after 2 years,[2]; [5],32.2
same,change in TSS over 2 years,[2]; [5],7.2
same,mean change TSS during year 1,[2]; [6],3.8 sharp score units
same,mean change TSS during year 2,[2]; [6],3.4 sharp score units
same,TSS after 2 years,[2]; disease duration <6 months,32.4
same,change in TSS over 2 years,[2]; disease duration <6 months,13.2
same,mean change TSS during year 1,[2]; disease duration <6 months,7.4 sharp score units
same,mean change TSS during year 2,[2]; disease duration <6 months,5.8 sharp score units
same,"rate of change in TSS in ACR20 responders, relative to combination therapy",[2]; in vivo,7 times
same,"Mo-6 Non-Progressors, % of arm",[2]; no progression = ΔTSS≦0.5,51%
same,"Mo-6 Non-Progressors, number of patients",[2]; no progression = ΔTSS≦0.5,129
same,patients with no progression at year 2,[2]; no progression at month 6,61%
same,"Mo-6 Progressors, % of arm",[2]; progression = ΔTSS>0.5,49%
same,"Mo-6 Progressors, number of patients",[2]; progression = ΔTSS>0.5,123
same,patients with no progression at year 2,[2]; progression at month 6,6%
same,mean change from baseline in TSS,"[2]; week 26, ITT with imputation",3.5
same,mean change from baseline in TSS,"[2]; week 52 (1 year), ITT with imputation",5.7
same,mean change from baseline in TSS,"[2]; week 104 (2 years), ITT with imputation",10.4
